For data set [1], the target named is T1, human EDG-4 (Homo sapiens, UniProt O95136, F273L/I205V).
T1 construct: a 1059 bp open reading frame (excluding the stop codon) corresponding to the complete human edg-4 coding region; expressed in transfected cells; host or cells: 293-EBNA
The data set is described as follows: Relative potency and efficacy of agonists, luciferase (SRE) reporter in 293-EBNA cells expressing recombinant human EDG-4. It is filed as cell-based. The settings on record: for Rank (EMax): rank of efficacy. The method, then: (§1) Transfection of EDG-4, expression, pretreatment and treatment of 293-EBNA cells expressing recombinant human EDG-4 was carried out essentially as described in “Example 11. […] Results were tabulated in Microsoft Excel, and analyzed with GraphPad Prism sotfware. […] The luciferase response was expressed as fold response, after subtracting any endogenous response in pcDNA3-transfected cells at a given concentration of compound.

Data set [2] has as its system 293-EBNA cells. It is filed as cell-based. Here is the method:
as §1

Data set [3] relates to HeLa cells. The data set is described as follows: IL-8 response (IL-8 ELISA) in HeLa cells. Format: cell-based, human. Here is the method: • Cells: HeLa (adenocarcinoma, human) • Media: DMEM/F12+10% FBS Adherent • 1) Cells were seeded at 0.2×10^6 cells/well in 6-well plates. • 2) Confluency of cells after 24–32 hrs was between 60–70%. B. Overnight Serum-Starvation • 1) Media was aspirated (no PBS wash). • 2) 1.5 ml 0.5% FBS media was added to each well. C. Treatments and Collection • 1) Made up all required solutions in 0.5% FBS media (control). Handling of […] for use in NF-κB experiments requires that sonication, commonly used to resuspend LPA, not be done; NF-κB may be activated by lipid peroxides created through vigorous frothing. Solutions:
D. Detection of Interleukin-8 (IL-8) using an IL-8 ELISA (Enzyme-Linked ImmunoSorbent Assay). • 1) The Quantikine Human IL-8 Immuno Assay Kit was obtained from R&D Systems (Cat. D8050). • 2) The kit and all samples were allowed to equlibrate to room temperature prior to use. • 3) All reagents were provided in the kit and prepared according to the instructions provided. • 4) The assay procedure was followed as recommended in the kit for cell culture supernatant samples. • 5) ELISA was performed on 50 μl samples of culture supernatant and duplicate samples were measured for each well. Each treatment was performed on triplicate wells. • 6) Plates were read on UV max kinetic microplate reader (Molecular Devices), set to 450 nm and correction set to 575 nm, using Wsoftmax sotware version 2.34.
• 1) Cells were seeded at 2.5×10^4 cells/well in 24-well plates. • 2) Confluency of cells after 24–32 hrs was between 60–70%. B. Overnight Serum-Starvation and PTX Pre-Treatment • 1) Media was aspirated (no PBS wash). • 2) 0.5 ml 0.5% FBS media was added to all wells not requiring PTX pre-treatment. • 3) For well requiring PTX; 0.5 ml 0.5% FBS media containing 50 ng/ml PTX (1 volume PTX (RBI Cat. P140): 1 volume DTT, incubate 37° C. for 30 minutes then dilute to 50 ng/ml) was added. C. Treatments and Collection • 1) Made up all required solutions in 0.5% FBS media (control). […] D. Refer to Procedure #1 For HeLa Cells (D).
Background: ELISA stands for enzyme-linked immunosorbent assay.

Data set [4] deals with HeLa cells. The data set is described as follows: Cytotoxicity (viable cell count at 24 hr) in HeLa cells. The settings on record: NDGA 40 μM.
Experimental: For this purpose, an experiment was conducted to measure cytotoxicity in parallel with IL-8 response.
In data set [5] the test system is Human Umbilical Vein Endothelial Cells (HUVEC). In words: IL-8 response in primary cultured HUVEC. It is filed as cell-based. The settings on record: 5 μM, 6 hr. The method, then: Cells: HUVEC (Clonetics, Cat. CC-2519) were passaged according to supplier's instructions and used at passage 3. Cells were plated at 20,000 cells/well into 24-well plates. […] LPA induced a 3-fold IL-8 increase at this concentration. […] As shown below in FIG. 23, three cloned edge receptors respond to LPA as an agonist, and all three appear to transduce NF-κB activation in an agonist-dependent manner.

The target in data set [6] is rat EDG-4 (Rattus norvegicus, UniProt P47752). The data set is described as follows: NF-κB-tk-p4Luc luciferase reporter in 293-EBNA cells, rat EDG-4. It is filed as cell-based. Also on record: transient transfection with a eukaryotic expression vector expressing full-length rat edg-4 cDNA; expressed in transfected cells; host or cells: 293-EBNA. The note with it: Assay 1; 24 hrs. On the technique in general: In a reporter assay the amount or activity of a reporter protein is the signal.
rat EDG-4, sequence (P47752 whole entry): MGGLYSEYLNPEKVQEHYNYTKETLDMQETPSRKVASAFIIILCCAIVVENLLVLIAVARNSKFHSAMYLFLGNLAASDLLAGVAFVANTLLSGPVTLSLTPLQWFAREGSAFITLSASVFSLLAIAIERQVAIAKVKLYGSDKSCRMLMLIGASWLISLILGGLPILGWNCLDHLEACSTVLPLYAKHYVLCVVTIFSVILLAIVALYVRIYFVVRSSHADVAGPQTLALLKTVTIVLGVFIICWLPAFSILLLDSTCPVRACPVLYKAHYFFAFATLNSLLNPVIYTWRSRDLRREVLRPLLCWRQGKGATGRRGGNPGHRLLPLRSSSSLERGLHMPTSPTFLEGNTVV
Text: First, the NF-κB response element was reconstructed in a new reporter construct (p4Luc) suitable for stable maintenance as an episome in primate cells. […] The p4-Luc reporter used the backbone of pREP4 (Invitrogen; Cat. V004-50), which contains the EBV orgin of replicaiton (EBVoni), as well as the EBNA-1 viral antigen required to maintain EBVoti containing plasmids as stable episoms in primate cells, and a prokayotic selection marker. A dominant eukaryotic selection marker for zeocin resistance was substituted for expression in pREP4. The promoter of pREP4 was then excised and replaced with a multi-cloning site for introduction of promoter/enhancer inserts. The NF-κB inser of the previous CAT reporter was subcloned into this site and all cloning junctions were sequenced to verify the structure of the plasmid, called NF-κB-tk-p4Luc.
• 1) 150 mm plates of 293-EBNA obtained from Invitrogen (Cat. R620-07) with a confluency of 18 80% were used for transfection. • 2) 6.6 μg NF-κB-tk-p4Luc reporter DNA and 6.6 μg of pC3-redg4 (expressing rat EDG-4), or pcDNA3 DNA was diluted in 500 μl OPTI-MEM (Gibco; Cat. 31985-062) • 3) 96.8 μl Lipofectamine (Gibco; Cat. 18324-020) was diluted in 500 μl of OPTI-MEM. • 4) The 2 solutions were mixed gently and the tube was incubated for 30 min at room temperature. • 5) The 293-EBNA plates were washed once with PBS and 13 ml OPTI-MEM was added to each plate, • 6) 6 ml OPTI-UMM was added to each transfection tube and this was added to a plate of 293EBNA cells. The plates were left for 4 hrs at 37° C. in a 5% CO2 incubator. • 7) After 4 his, the media was removed and replaced with frest 10% FBS media. Day 2: • 1) Transfected cells were washed, typsinized with 1× tryspin, resuspended in 10 ml media and counted. • 2) 0.02×10 ^6 cells were plated per well of a 96-well Blackview plate coated with polyD-lysine. No cells were plated in the outside wells of the 96-well plate. Two 96-well plates were seeded for each transfection. Day 3: • 1) Cells were washed with PBS and 140 μl serum-free media (SFM) added to each well. Plates were incubated in 37° C. incubator for 6 hrs. • 2) After 6 hrs, media was removed and cells treated with compounds diluted in 0.5% FBS media (140 μl added to each well).
Day 4 Luciferase Assay • 1) Luclite kit (Packard; Cat. 6016911) was used for luciferase assay. All reagents were brought to room temperature before use. • 2) Supernatant was transferred to a new 96-well plate and stored at −20 C. for rupture IL-8 measurement. • 3) 50 μl 0.5 M HEPES pH 7.8 buffer (1 mM MgCl21 mM CaCl2) was addeded to all wells of 96-well plate. Black adhesive backing (polyfitronics) was aligned to the bottom of the viewplate. • 4) Luclite substrate was made up by adding 10 ml substate diluent to 1 vial lyophilized substrate. Reconstituted substrate was kept under a dark container. 50 μl substrate was added to each well. • 5) A clear adhesive plate sealer was adjusted on to the viewplate and sealer rubbed over the plate with a Kimwipe. The plate was shaken on a plate shaker at 500 rpm for 5 seconds right side up and then upside down. A stop plate was placed on top of the blackview plate to keep it in the dark. • 6) Plates were incubated at room temperature for 30 min. • 7) After incubation, plates were counted in a 12 detector Packard Top Count on a program without dark delay.

Data set [7] deals with HL-60 cells. The data set is described as follows: IL-8 response in HL-60 cells. Format: cell-based, human. The note with it: 1, 6 or 24 hours, S1P or LPA up to 3 μM, TNF-α 10 ng/ml.
Where [8] appears, read: S1P 1 μM, NDGA 40 or 10 μM, NAC 30 mM, 30 minute pre-treatment.

The source of these data is patent US7052850B2, “Isolated human EDG-4 receptor” (priority 1997, dated 2006).

T1 sequence (O95136 whole entry I205V/F273L): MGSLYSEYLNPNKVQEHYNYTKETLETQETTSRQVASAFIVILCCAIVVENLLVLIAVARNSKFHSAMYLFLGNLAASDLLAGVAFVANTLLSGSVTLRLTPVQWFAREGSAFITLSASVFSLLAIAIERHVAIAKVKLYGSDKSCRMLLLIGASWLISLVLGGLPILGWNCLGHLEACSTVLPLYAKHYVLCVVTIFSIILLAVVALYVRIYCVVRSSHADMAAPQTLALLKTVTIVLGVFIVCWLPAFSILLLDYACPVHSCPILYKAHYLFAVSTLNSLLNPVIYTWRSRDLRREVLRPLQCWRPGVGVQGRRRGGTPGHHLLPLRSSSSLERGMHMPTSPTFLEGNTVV

On to `CCCCCCCCCCCCCCC[C@@H](O)[C@@H](N)COP(=O)(O)O` [Dihydro-S1P, dihydrosphingosine 1-phosphate], for which, in data set [1], the “agonist character at EDG-4” value is “partial agonist” and the “Rank (EMax)” value is given as 3. `CCCCCCCCCCCCC/C=C/[C@@H](O)C(N)CO[C@@H]1O[C@H](CO)[C@@H](O)[C@H](O)[C@@H]1O` (stereo partly shown) [Glucospychosin, glucopsychosine]: the “concentration at which cytotoxicity was seen” value in data set [2] is listed as “^aCytotoxicity was seen at 10 μM or higher concentrations, preventing quantitative determination of EC50 or EMax”. In data set [1], the “agonist character at EDG-4” value is “poor potency and efficacy”; the “Rank (EMax)” value is given as 4. In the case of `CC(=O)N[C@@H](CS)C(=O)O` [NAC], in data set [3] (setting [8]), the “inhibition of IL-8 response to S1P” value was “significantly inhibited”. For `CC(Cc1ccc(O)c(O)c1)C(C)Cc1ccc(O)c(O)c1` (stereo not shown) [NDGA], the “inhibition of IL-8 response to S1P” value in data set [3] (S1P 1 μM, NDGA 40 μM) is “completely inhibited”; in data set [3] (setting [8]) it was “significantly inhibited”. The toxicity entry in data set [4] is “some toxicity”. For `CCCCCCCCCCCCC/C=C/[C@@H](O)[C@@H](N)CO[C@@H]1O[C@H](CO)[C@H](O)[C@H](O)[C@H]1O` [Psychosine, psychosine], in data set [2], the “concentration at which cytotoxicity was seen” value is listed as “^aCytotoxicity was seen at 10 μM or higher concentrations, preventing quantitative determination of EC50 or EMax”. Also, in data set [1], the “agonist character at EDG-4” value was “poor potency and efficacy”; the “Rank (EMax)” value was 5. Moreover, the “IL-8 levels, increase over untreated controls” value in data set [5] is “Marginal increases”.

In the case of `Cc1ccc(C(=O)Nc2ccc(S(=O)(=O)O)c3cc(S(=O)(=O)O)cc(S(=O)(=O)O)c23)cc1NC(=O)c1cccc(NC(=O)Nc2cccc(C(=O)Nc3cc(C(=O)Nc4ccc(S(=O)(=O)O)c5cc(S(=O)(=O)O)cc(S(=O)(=O)O)c45)ccc3C)c2)c1` [Suramin], the “inhibition of IL-8 response to edelfosine” value in data set [3] (ET-18-OCH3 3 μM, PTX 50 ng/ml or suramin 1 mg/ml) is listed as “potently inhibited”. Moreover, the “effect on IL-8 response to S1P” value in data set [3] (S1P 1 μM, suramin 1 mg/ml, 30 minute pre-treatment) is given as “extremely effective in blunting the IL-8 response to S1P”. `CCCCCCCCCCCCCC(=O)O[C@@H]1[C@@H](C)[C@@]2(O)[C@@H](C=C(CO)C[C@]3(O)C(=O)C(C)=C[C@@H]23)[C@H]2C(C)(C)[C@]12OC(C)=O` [TPA]: in data set [6], the “induction of NF-κB reporter” value is “strongly induced”. Regarding `CCCCC/C=C\C/C=C\C/C=C\C/C=C\CCCC(=O)NCCO` [anandamide], the “IL-8 levels, increase over untreated controls” value in data set [5] was “no responses”. For `CCCCCCCCCCCCC/C=C/[C@@H](O)[C@@H](N)CO` [sphingosine], in data set [3] (6 hours, concentration series), the IL-8 induction result is “lack of response”.

For TNF-α, in data set [7], the IL-8 release entry is reported as “capable of responding at 6 or 24 hr”.
